Assays:
[1] = refractive index (Na D-line) (dimensionless); conditions: 101.33 kPa, Liquid, Standard Abbe refractometry
[2] = relative permittivity at various frequencies (dimensionless); conditions: 101 kPa, Liquid, Frequency=2 MHz, capacitive measurement method

OCC1CCCO1 (stereo unspecified) [2-tetrahydrofurylmethanol]
Conditions | refractive index, [1] | relative permittivity, [2]
278.15 K | – | 15.2
280.65 K | – | 15
283.15 K | 1.45646 | 15
285.65 K | 1.45549 | 14.9
288.15 K | 1.45452 | 14.8
290.65 K | 1.45356 | 14.7
293.15 K | 1.45259 | 14.6
295.65 K | 1.45162 | 14.5
298.15 K | 1.45063 | 14.4
300.65 K | 1.44965 | 14.4
303.15 K | 1.44867 | 14.3
305.65 K | 1.44769 | 14.2
308.15 K | 1.44671 | 14.1
310.65 K | 1.44572 | 14
313.15 K | 1.44473 | 13.9
315.65 K | 1.44375 | 13.8
318.15 K | 1.44274 | 13.8
320.65 K | 1.44176 | 13.6
323.15 K | 1.44072 | 13.5
325.65 K | 1.4397 | 13.5
328.15 K | 1.43871 | 13.4
330.65 K | 1.43772 | 13.3
333.15 K | 1.43668 | 13.2
335.65 K | 1.43567 | 13.1
338.15 K | 1.43466 | 13

Cc1ccc(C=O)o1 [5-methylfurfural]
Conditions | refractive index, [1] | relative permittivity, [2]
278.15 K | – | 45.2
280.65 K | – | 44.5
283.15 K | 1.5364 | 43.7
285.65 K | 1.53529 | 43
288.15 K | 1.53393 | 42.3
290.65 K | 1.53269 | 41.6
293.15 K | 1.53144 | 40.9
295.65 K | 1.53019 | 40.2
298.15 K | 1.5289 | 39.4
300.65 K | 1.52765 | 38.7
303.15 K | 1.5264 | 38
305.65 K | 1.52513 | 37.2
308.15 K | 1.52385 | 36.4
310.65 K | 1.52257 | 35.8
313.15 K | 1.5213 | 35.1
315.65 K | 1.52 | 34.4
318.15 K | 1.51872 | 33.7
320.65 K | 1.51742 | 33.6
323.15 K | 1.51615 | 32.4
325.65 K | 1.51486 | 31.7
328.15 K | 1.51357 | 31.1
330.65 K | 1.51229 | 30.4
333.15 K | 1.511 | 29.8
335.65 K | 1.50972 | 29.1
338.15 K | 1.50842 | 28.4

Source: the NIST ThermoML archive (doi:10.1021/je400783h)
